According to patent publication US12161647B2, “Treating hearing loss” (Massachusetts Eye and Ear Infirmary, priority 2012, dated 2024):

Columns and labels:
[1] = test system: inner ear spheres made from Math1-nGFP mice; experiment: Hair cell differentiation from utricular spheres of neonatal Math1-nGFP reporter mice; format: cell-based, mouse; settings: compared with DAPT, L-685458, MDL28170; normalized to DMSO
Protocol: The utricles and cochleae of 1- to 3-d-postnatal mice of both sexes were dissected, and after careful removal of the nerve trunk and mesenchymal tissues, were trypsinized and dissociated. Dissociated cells were centrifuged, and the pellet was resuspended and filtered through a 70 μm cell strainer (BD Biosciences Discovery Labware) in DMEM/F12 medium with N2/B27 supplement, EGF (20 ng/ml), IGF1 (50 ng/ml), bFGF (10 ng/ml), and heparan sulfate (50 ng/ml) (Sigma). The single cells were cultured in nonadherent Petri dishes (Greiner Bio-One) to initiate clonal growth of spheres (49). Spheres that formed after 2-3 d in culture were passaged every 4-6 d. […]
Cell counting for spheres was performed with MetaMorph software. The cell number was determined from DAPI- or Hoechst-positive nuclei. […] For explants, inner hair cells, outer hair cells, and supporting cells in the outer hair cell region were counted on cochlear whole mounts. […] High-power images of the full-length cochlea or cochlear explant cultures were assembled and analyzed in PhotoShop CS4 (Adobe). ImageJ software (NIH) was used to measure the total length of cochlear whole mounts and the length of individual counted segments. The total number of inner hair cells, outer hair cells, and supporting cells in the outer hair cell region was counted in each of four cochlear segments of 1200-1400 μm (apical, mid-apical, mid-basal, and basal). […]

[2] = test system: neonatal organ of Corti explants; experiment: Neonatal organ of Corti explant culture, hair cell number; format: cell-based, mouse
Protocol: Cochleae of 3-d-postnatal C57BL/6 or Mos-iCsp3; Pou4f3-Cre double transgenic mice of both sexes were dissected in Hanks solution (Invitrogen). To obtain a flat cochlear surface preparation, the spiral ganglion, Reissner's membrane, and the most basal cochlear segment were removed. Explants were plated onto 4 well plates (Greiner Bio-One) coated with poly-L-ornithine (0.01%, Sigma) and laminin (50 μg/ml, Becton Dickinson). Cochlear explants were cultured in DMEM (Invitrogen) with 10% fetal bovine serum. All cultures were maintained in a 5% CO2/20% O2-humidified incubator (Forma Scientific).
For explants, the organs of Corti were fixed for 15 min with 4% paraformaldehyde in PBS. […] Primary antibodies were detected with secondary antibodies conjugated with Alexa 488 and 647 (Molecular Probes). The samples were stained with rhodamine phalloidin (Invitrogen) for 15 min and viewed by confocal fluorescence microscopy (TCS SP5, Leica).
Cell counting for spheres was performed with MetaMorph software. The cell number was determined from DAPI- or Hoechst-positive nuclei. […] For explants, inner hair cells, outer hair cells, and supporting cells in the outer hair cell region were counted on cochlear whole mounts. […] High-power images of the full-length cochlea or cochlear explant cultures were assembled and analyzed in PhotoShop CS4 (Adobe). […] Density (cells per 100 μm) was then calculated for each segment. […]

C[C@H](NC(=O)[C@@H](O)c1cc(F)cc(F)c1)C(=O)N[C@@H]1C(=O)N(C)c2ccccc2-c2ccccc21 [LY411575, N-2((2S)-2-(3,5-difluorophenyl)-2-hydroxyethanoyl)-N1-((7S)-5-methyl-6-oxo-6,7-dihydro-5H-dibenzo[b,d]azepin-7-yl)-l-alaninamide]
potency for hair cell induction (nGFP-positive cells to DAPI-positive cells) among the four γ-secretase inhibitors [1]: highest potency
increase in number of myosin VIIa-positive cells in the outer hair cell region compared to the control ([2]; LY411575 1 μM, 72 h, p<0.05): 30 cells/100 μm
number of hair cells in wild-type organ of Corti (Wt) ([2]; apex, mid-apex and mid-base, cultured 3 d): Increased
